Data from patent US9062033B2, “Chemical compounds” (Rottapharm Biotech S.r.l., priority 2011, dated 2015).

How the values were obtained:
human OX2 receptors = target: T1, human OX2 receptors (Homo sapiens, UniProt O43614); assay: Antagonistic activity against human OX2 receptor, [Ca2+]i fluorimetry (Fluo-4NW) in transfected HEK-293 cells activated with orexin-B; type: cell-based; settings: HEK-293 cells transfected with human recombinant OX2; orexin-B 10 nM; pKb = co-logarithm of apparent dissociation constant, modified Cheng Prusoff
T1 construct: expressed in transfected cells; host or cells: HEK-293 cells
T1 sequence (O43614 1-444): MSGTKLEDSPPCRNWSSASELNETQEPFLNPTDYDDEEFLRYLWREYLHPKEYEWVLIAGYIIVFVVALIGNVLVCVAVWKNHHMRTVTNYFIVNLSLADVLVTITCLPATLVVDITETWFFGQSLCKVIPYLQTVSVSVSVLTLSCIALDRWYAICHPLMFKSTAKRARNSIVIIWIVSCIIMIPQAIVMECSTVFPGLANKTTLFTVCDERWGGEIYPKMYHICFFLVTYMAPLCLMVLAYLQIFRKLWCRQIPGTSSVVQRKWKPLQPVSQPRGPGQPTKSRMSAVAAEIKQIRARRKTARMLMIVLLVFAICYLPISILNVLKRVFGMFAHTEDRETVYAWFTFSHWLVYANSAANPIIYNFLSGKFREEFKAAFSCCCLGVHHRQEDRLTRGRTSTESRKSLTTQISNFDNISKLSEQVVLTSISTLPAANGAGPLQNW
Method: (§1) In a typical experiment, the antagonistic activity against human OX1 and OX2 receptors is determined by using CHO e HEK-293 cells transfected with human recombinant OX1 and OX2 receptors respectively, seeded at density of 2 and 3×10^4 cells/well respectively in a 96 fluorimetry well plate. Thus the plate was loaded with the calcium dye (Fluo-4NW/probenecid in HBSS, Hepes 20 mM, pH 7.4; Invitrogen) at 37° C. for 60 min. Afterward the temperature was equilibrated at 22° C. for 15 min and the [Ca2+]i measured directly on the plate by using a fluorescent plate reader (CellLux Perkin Elmer).
(§2) Invention compounds were dissolved in DMSO, diluted in HBSS (DMSO, 0.3% final) and added to the wells. After 5 min CHO cells were activated with orexin-A, 3 nM while HEK-293 cells were activated with orexin-B, 10 nM.
(§3) The compounds, dissolved in DMSO and diluted in the medium (DMSO, 0.3% final), have been analysed in the 1 nM-1 μM concentration range (every concentration in duplicate). The antagonistic activity has been expressed as pKb (co-logarithm of the apparent dissociation constant calculated by using the modified Cheng Prusoff equation).
(§4) The results are expressed as percent of control specific […] response ((measured specific response/control specific agonist response)×100) obtained in the presence of the test compounds.
(§5) The IC50 values (concentration causing a half-maximal inhibition of the control specific agonist response) were determinated by non-linear regression analysis of the concentration curves generated with mean replicate values using hill equation curve fitting. The IC50 values are obtained by the arithmetical mean of at least two experiments. Compounds of the following example tested according to this example gave pKbs as follows: […]

human OX1 receptors = target: T2, human OX1 receptors (Homo sapiens, UniProt O43613); assay: Antagonistic activity against human OX1 receptor, [Ca2+]i fluorimetry (Fluo-4NW) in transfected CHO cells activated with orexin-A; type: cell-based; settings: CHO cells transfected with human recombinant OX1; orexin-A 3 nM; pKb = co-logarithm of apparent dissociation constant, modified Cheng Prusoff
T2 construct: expressed in transfected cells; host or cells: CHO cells
T2 sequence (O43613 1-425): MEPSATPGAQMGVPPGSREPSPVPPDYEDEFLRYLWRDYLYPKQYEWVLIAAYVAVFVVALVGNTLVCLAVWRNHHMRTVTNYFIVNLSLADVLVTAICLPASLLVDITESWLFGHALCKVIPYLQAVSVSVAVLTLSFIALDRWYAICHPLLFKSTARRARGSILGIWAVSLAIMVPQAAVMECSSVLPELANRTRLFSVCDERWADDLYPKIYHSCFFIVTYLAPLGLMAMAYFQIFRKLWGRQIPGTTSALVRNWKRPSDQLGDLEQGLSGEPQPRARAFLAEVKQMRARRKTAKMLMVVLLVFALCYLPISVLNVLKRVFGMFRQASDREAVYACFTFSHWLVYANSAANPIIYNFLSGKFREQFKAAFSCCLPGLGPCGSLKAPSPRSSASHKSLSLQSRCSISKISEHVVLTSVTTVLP
Method: as §1, §2, §3, §4, §5

| Kb (human OX2 receptors) | Kb (human OX1 receptors) | Compound |
| --- | --- | --- |
| 0.0398 µM | 0.00126 µM | O=C(c1c(F)cccc1-c1ncccn1)N1CC2(CC2)C[C@H]1CNc1ncc(C(F)(F)F)cc1F [Compound 1g, (S)-(6-(((3-fluoro-5-(trifluoromethyl)pyridin-2-yl)amino)methyl)-5-azaspiro[2.4]heptan-5-yl)(2-fluoro-6-(pyrimidin-2-yl)phenyl)methanone] |
| 0.01 µM | 0.00501 µM | Cc1ccc(-c2ncccn2)c(C(=O)N2CC3(CC3)C[C@H]2CNc2ncc(C(F)(F)F)cc2Cl)n1 [Compound 3g, (S)-(6-(((3-chloro-5-(trifluoromethyl)pyridin-2-yl)amino)methyl)-5-azaspiro[2.4]heptan-5-yl)(6-methyl-3-(pyrimidin-2-yl)pyridin-2-yl)methanone] |
| 0.0316 µM | 0.0126 µM | Cc1nc(C(=O)N2CC3(CC3)C[C@H]2CNc2nc3ccc(Cl)cc3s2)c(-c2ccccc2)s1 [Compound 2i, (S)-(6-(((6-chlorobenzo[d]thiazol-2-yl)amino)methyl)-5-azaspiro[2.4]heptan-5-yl)(2-methyl-5-phenylthiazol-4-yl)methanone] |
| 0.00501 µM | 0.00126 µM | Cc1cnn(-c2ccc(C)nc2C(=O)N2CC3(CC3)C[C@H]2CNc2ccc(C(F)(F)F)cn2)c1 [Compound 3i, (S)-(6-methyl-3-(4-methyl-1H-pyrazol-1-yl)pyridin-2-yl)(6-(((5-(trifluoromethyl)pyridin-2-yl)amino)-methyl)-5-azaspiro[2.4]heptan-5-yl)methanone] |
| 0.00794 µM | 0.00794 µM | Cc1ccc(-c2ccc(F)cc2)c(C(=O)N2CC3(CC3)C[C@H]2CNc2ccc(C(F)(F)F)cn2)n1 [Compound 3f, (S)-(3-(4-fluorophenyl)-6-methylpyridin-2-yl)(6-(((5-(trifluoromethyl)pyridin-2-yl)amino)methyl)-5-azaspiro[2.4]heptan-5-yl)methanone] |
| 0.0316 µM | 0.02 µM | Cc1ccc(-c2ccc(C#N)cc2)c(C(=O)N2CC3(CC3)C[C@H]2CNc2ccc(C(F)(F)F)cn2)n1 [Compound E8, (S)-4-(6-methyl-2-(6-(((5-(trifluoromethyl)pyridin-2-yl)amino)methyl)-5-azaspiro[2.4]heptane-5-carbonyl)pyridin-3-yl)benzonitrile] |
| 0.00631 µM | 0.0398 µM | O=C(c1cc(Cl)ccc1-c1ncccn1)N1CC2(CC2)C[C@H]1CNc1nccc(C(F)(F)F)n1 [Compound 1q] |
| 0.0126 µM | 0.0398 µM | O=C(c1c(F)cccc1-c1ncccn1)N1CC2(CC2)C[C@H]1CNc1cc(C(F)(F)F)ccn1 [Compound 1h, (S)-(2-fluoro-6-(pyrimidin-2-yl)phenyl)(6-(((4-(trifluoromethyl)pyridin-2-yl)amino)methyl)-5-azaspiro[2.4]heptan-5-yl)methanone] |
| 0.00251 µM | 0.00251 µM | Cc1ccc(OCc2ccccc2)c(C(=O)N2CC3(CC3)C[C@H]2CNc2ccc(C(F)(F)F)cn2)n1 [Compound 3k, (S)-(3-(benzyloxy)-6-methylpyridin-2-yl)(6-(((5-(trifluoromethyl)pyridin-2-yl)amino)methyl)-5-azaspiro[2.4]heptan-5-yl)methanone] |
| 0.0316 µM | 0.00398 µM | Cc1ccc(-c2ncccn2)c(C(=O)N2CC3(CC3)C[C@H]2CNc2ccc(C(F)(F)F)cn2)n1 [Compound 3a, (S)-(6-methyl-3-(pyrimidin-2-yl)pyridin-2-yl)(6-(((5-(trifluoromethyl)pyridin-2-yl)amino)methyl)-5-azaspiro[2.4]heptan-5-yl)methanone] |
| 0.00631 µM | 0.02 µM | Cc1cc(C(F)(F)F)cc(NC[C@@H]2CC3(CC3)CN2C(=O)c2cc(F)ccc2-c2ncccn2)n1 [Compound 1j, (S)-(5-fluoro-2-(pyrimidin-2-yl)phenyl)(6-(((6-methyl-4-(trifluoromethyl)pyridin-2-yl)amino)methyl)-5-azaspiro[2.4]heptan-5-yl)methanone] |
| 0.0251 µM | 0.00501 µM | Cc1ccc(-c2ncccn2)c(C(=O)N2CC3(CC3)C[C@H]2CNc2ncc(C(F)(F)F)cc2F)c1 [Compound 1l, (S)-(6-(((3-fluoro-5-(trifluoromethyl)pyridin-2-yl)amino)methyl)-5-azaspiro[2.4]heptan-5-yl)(5-methyl-2-(pyrimidin-2-yl)phenyl)methanone] |
| 0.2 µM | 0.1 µM | Cc1ccc(-c2cccnc2)c(C(=O)N2CC3(CC3)C[C@H]2CNc2ccc(C(F)(F)F)cn2)n1 [Compound E6, (S)-(6-methyl-[3,3′-bipyridin]-2-yl)(6-(((5-(trifluoromethyl)pyridin-2-yl)amino)methyl)-5-azaspiro[2.4]heptan-5-yl)methanone] |
| 0.2 µM | 0.0126 µM | Cc1cccc(C(=O)N2CC3(CC3)C[C@H]2CNc2ccc(C(F)(F)F)cn2)c1-c1ncccn1 [Compound 1c, (S)-(3-methyl-2-(pyrimidin-2-yl)phenyl)(6-(((5-(trifluoromethyl)pyridin-2-yl)amino)methyl)-5-azaspiro[2.4]heptan-5-yl)methanone] |
| 0.02 µM | 0.0126 µM | Cc1ccc(-c2ccc(F)c(F)c2)c(C(=O)N2CC3(CC3)C[C@H]2CNc2ccc(C(F)(F)F)cn2)n1 [Compound E11, (S)-(3-(3,4-difluorophenyl)-6-methylpyridin-2-yl)(6-(((5-(trifluoromethyl)pyridin-2-yl)amino)methyl)-5-azaspiro[2.4]heptan-5-yl)methanone] |
| 0.1 µM | 0.0251 µM | Cc1ccc(-c2ncccn2)c(C(=O)N2CC3(CC3)C[C@H]2CNc2ncc(C(F)(F)F)cn2)c1 [Compound 1s, (S)-(5-methyl-2-(pyrimidin-2-yl)phenyl)(6-(((5-(trifluoromethyl)pyrimidin-2-yl)amino)methyl)-5-azaspiro[2.4]heptan-5-yl)methanone] |
| 0.00316 µM | 0.00631 µM | Cc1nc(C(=O)N2CC3(CC3)C[C@H]2CNc2cc(C(F)(F)F)ccn2)c(-c2ccccc2)s1 [Compound 2j, (S)-(2-methyl-5-phenylthiazol-4-yl)(6-(((4-(trifluoromethyl)pyridin-2-yl)amino)methyl)-5-azaspiro[2.4]heptan-5-yl)methanone] |
| 0.0631 µM | 0.0794 µM | O=C(c1cccc2c1OC(F)(F)O2)N1CC2(CC2)C[C@H]1CNc1ccc(C(F)(F)F)cn1 [Compound 1b, (S)-(2,2-difluorobenzo[d][1,3]dioxol-4-yl)(6-(((5-(trifluoromethyl)pyridin-2-yl)amino)methyl)-5-azaspiro[2.4]heptan-5-yl)methanone] |
| 0.00251 µM | 0.0158 µM | Cc1cc(C(F)(F)F)cc(NC[C@@H]2CC3(CC3)CN2C(=O)c2nc(C)sc2-c2ccccc2)n1 [Compound 2k, (S)-(6-(((6-methyl-4-(trifluoromethyl)pyridin-2-yl)amino)methyl)-5-azaspiro[2.4]heptan-5-yl)(2-methyl-5-phenylthiazol-4-yl)methanone] |
| 0.01 µM | 0.00631 µM | O=C(c1cc(Cl)ccc1-c1ncccn1)N1CC2(CC2)C[C@H]1CNc1cc(Cl)c(C(F)(F)F)cn1 [Compound 1v, (S)-(5-chloro-2-(pyrimidin-2-yl)phenyl)(6-(((4-chloro-5-(trifluoromethyl)pyridin-2-yl)amino)methyl)-5-azaspiro[2.4]heptan-5-yl)methanone] |
